According to article PMC10381533, “Inhibitory Effects of the Fungal Pigment Rubiginosin C on Hyphal and Biofilm Formation in Candida albicans and Candida auris” (Journal of Fungi, 2023):
Converted amounts (≈) assume the structure as drawn.

Legend:
C. albicans [DSM 1665] = test system: C. albicans [DSM 1665]; parameters: method as in doi:10.1002/ejoc.202001661; settings: highest tested concentration 250 µg/mL; cited from earlier work
C. auris [DSM 21092] = test: MIC assay, C. auris; assay type: cell-based, Candida auris; settings: tested 250–2 µg/mL
Protocol: (§1) The MICs of rubiginosin- and rutilin-type azaphilones—in detail, Rub A, C, W, Z, and Rut A and B—were determined as described previously using the selected pathogens C. albicans [DSM 11225, DSM 1665], C. albicans CAI-4 HWP1-lacZ [ZK3379] and C. auris [DSM 21092] (see Table S1 for detailed information). All compounds were tested within the concentration range of 250 µg/mL–2 µg/mL for C. albicans [DSM 11225, DSM 1665], C. albicans CAI-4 HWP1-lacZ [ZK3379], C. auris [DSM 21092]. […]
(§2) All compounds were fully dissolved in
(§3) The assay was conducted as a minimum inhibitory concentration (MIC) assay in 96-well round-bottom microtiter plates using the parameters summarized in table S1 and as already described in [2]. Stocks of the test organisms were generated by growing the organisms overnight in 250 mL (Candida albicans [DSM 11225], [DSM 1665], CAI-4 HWP1-lacZ, Candida auris [DSM 21092]) or 50 mL shaking (the rest organisms) flasks filled with 25 mL of the growth medium at 140 rpm (for media and temperatures see table S1). After incubation overnight, the OD of the suspension was measured and adjusted by diluting with the respective growth medium. OD600 nm was adjusted to 0.01 for bacteria and OD600 nm to 0.1 for fungi and 150 μL of the adjusted suspensions were added to all wells of a 96-well microtiter plate (one test organism per plate). Subsequently, additional 130 μL (1 mg/mL tested compounds) or 142.5 μL (10 mg/mL tested compounds ) of suspensions, plus 20 μL (1 mg/mL tested compounds) respectively 7.5 μL (10 mg/mL tested compounds ) of the test compounds were added to first row. C ontrols (one compound/column) were added as well: MeOH were used as solvent control, while different positive controls (reference drugs ) were used for the according test organisms (see table S1). Starting from row A, 150 μL of the suspension were transferred […]
(§4) to the next row, the contents thoroughly mixed, and 150 μL transferred to the following row. The remaining 150 μL after row H were discarded.
(§5) 66.7 μg/mL in row A to 0.52 μg/mL in row H (1 mg/mL tested compounds) or 250 μg/mL in row A to 2 μg/mL in row H (10 mg/mL tested compounds).
(§6) The 96-well microtiter plates were then incubated overnight on a microplate shaker at 800 rpm at 30 or 37 °C (see table S1) and were visually evaluated the next day. The MIC is defined as the lowest concentration where no growth of the test organism was observed. A lower MIC thus corresponds to a higher antimicrobial activity […]
(§7) Table S1: MIC assay experiment parameters.
(§8) Tested organisms Strain No. Growth Incubation Positive control medium temp. [°C ] (reference)
(§9) KB-3-1 (ACC 158) cervix carcinoma as well as L929 (ACC 2) mouse fibroblasts were cultured under standard cell culture conditions (37 °C, 5% CO2, 95% humidified atmosphere). The cells were maintained in high glucose DMEM containing 10% fetal bovine serum and 100 U/mL penicillin and streptomycin (Gibco, Thermo Fisher Scientific, Waltham, USA). Cell lines were serially passaged after trypsinization, using 0.05% trypsin / 0.02% EDTA solution. The cultures were routinely monitored for potential contamination, and only mycoplasma free cultures were used. The test compounds were investigated for their anti-proliferative effect on cell lines, using the 3-(4,5-dimethylthiazol-2-yl)-2,5-diphenyltetrazolium bromide (MTT) based cell viability assay. […]

[1] = test system: C. albicans CAI-4 HWP1-lacZ [ZK3379]; test: MIC assay, C. albicans CAI-4 HWP1-lacZ; assay type: cell-based, Candida albicans; settings: tested 250–2 µg/mL
Protocol: as §1, §2, §3, §4, §5, §6, §7, §8, §9

C. auris biofilm = test: Crystal violet biofilm formation assay, C. auris; assay type: cell-based, Candida auris; settings: for effect on formation of C. auris biofilms: CV assay, 24 h treatment
Protocol: The fungal pathogens C. auris [[…]] or C. albicans [DSM 11225] were cultured from stock in 25 mL YPD medium in a 250 mL flask (30 °C, 100 rpm, 18 h). The turbidity of the broth was measured at 280 nm using a spectrophotometer (Nanodrop 2000c, Thermo Fisher Scientific, Waltham, MA, USA) and diluted to match the turbidity of a 0.5 McFarland standard in RPMI 1640 medium (Gibco, New York, NY, USA; Thermo Fisher Scientific), supplemented with […] 3-(N-morpholino)propanesulfonic acid (MOPS, Carl Roth, Karlsruhe, Germany) for C. auris, or 0.05 McFarland standard in RPMI 1640 medium in the case of C. albicans. Subsequently, 150 μL of the fungal dispersion were added into each well of a 96-well microtiter plate (Falcon no. 351172, Thermo Fisher Scientific) and further incubated (37 °C, 150 rpm, 2 h [C. auris] or 90 min [C. albicans]). The supernatant was discarded and the plate was rinsed one time by using a PBS buffer. Afterwards, azaphilones (Rub A, C, W, Z, and Rut A and B) were serially diluted in 150 μL in fresh medium to concentrations of 250–2 μg/mL (Rub C for C. auris: 250–0.02 μg/mL). Methanol (2.5%) was used as a solvent control and both, nystatin (NYS; Thermo Fisher Scientific) and farnesol (FA; Sigma Aldrich, St. Louis, MO, USA) as positive controls (250–2 μg/mL) for C. auris and C. albicans, respectively. Plates were further incubated (37 °C, 150 rpm, 24 h). The supernatant was discarded and biofilms were washed with PBS, stained by adding 150 μL of the crystal violet (CV; Sigma Aldrich) solution (0.1%), and incubated (room temperature, 25 min). Afterwards, the plates were washed twice with PBS buffer. A total of 150 μL ethanol (95%) were applied to dissolve the biofilm-bound CV. The absorbance was measured by a plate reader (Synergy 2, BioTek, Santa Clara, CA, USA) at 570 nm for C. auris or 610 nm for C. albicans. Error bars indicate SD with duplicates in two biological repeats.

C. albicans [DSM 11225] = test: MIC assay, C. albicans DSM 11225; assay type: cell-based, Candida albicans; settings: tested 250–2 µg/mL
Protocol: as §1, §2, §3, §4, §5, §6, §7, §8, §9

C[C@@H]1[C@H](O)[C@@H](C)/C=C/C=C/CC/C=C/C=C/C=C/C=C/C(O[C@H]2O[C@H](C)[C@@H](O)[C@H](N)[C@@H]2O)CC2O[C@](O)(CC(O)C(O)CCC(O)CC(O)CC(O)CC(=O)O[C@H]1C)CC(O)C2C(=O)O (stereo partly shown) [Nystatin, nystatin]
MIC (C. albicans [DSM 1665]): 8.3 mg/L (≈ 8.96 µM)
MIC (C. auris [DSM 21092]): 31.3 mg/L (≈ 33.8 µM)
MIC [1]: 8.3 mg/L (≈ 8.96 µM)
inhibition of C. auris biofilm formation compared to solvent control (= 0%) (C. auris biofilm; 2 µg/mL): / ((/) no activity)
inhibition of C. auris biofilm formation compared to solvent control (= 0%) (C. auris biofilm; 3.9 µg/mL): 60 ±10%
inhibition of C. auris biofilm formation compared to solvent control (= 0%) (C. auris biofilm; 7.8 µg/mL): 42 ±15%
inhibition of C. auris biofilm formation compared to solvent control (= 0%) (C. auris biofilm; 15.6 µg/mL): 47 ±2%
inhibition of C. auris biofilm formation compared to solvent control (= 0%) (C. auris biofilm; 31.3 µg/mL): 50 ±10%
inhibition of C. auris biofilm formation compared to solvent control (= 0%) (C. auris biofilm; 62.5 µg/mL): 53 ±8%
inhibition of C. auris biofilm formation compared to solvent control (= 0%) (C. auris biofilm; 125 µg/mL): 45 ±10%
inhibition of C. auris biofilm formation compared to solvent control (= 0%) (C. auris biofilm; 250 µg/mL): 56 ±2%
MIC (C. albicans [DSM 11225]): 8.3 mg/L (≈ 8.96 µM)

CC(=O)OC/C=C/C1=CC2=C(CO1)C(=O)[C@@](C)(OC(=O)c1c(C)cc(O)cc1O)C(=O)/C2=C\C=C\C1=CC2=C(CO1)C(=O)[C@@](C)(O)[C@@H](OC(=O)c1c(C)cc(O)cc1O)C2 [Rut A, rutilin A]
MIC (C. albicans [DSM 1665]): no antimicrobial activity
MIC (C. auris [DSM 21092]): no antimicrobial activity
MIC [1]: no antimicrobial activity
effect on formation of C. auris biofilms (C. auris biofilm): did not affect the formation
MIC (C. albicans [DSM 11225]): no antimicrobial activity

CC(=O)OC/C=C/C1=CC2=C(CO1)C(=O)[C@@](C)(OC(=O)c1c(C)cc(O)cc1O)C(=O)/C2=C\C=C\C1=CC2=C(CO1)C(=O)[C@@](C)(OC(=O)c1c(C)cc(O)cc1O)[C@@H](O)C2 [Rut B, rutilin B]
MIC (C. albicans [DSM 1665]): no antimicrobial activity
MIC (C. auris [DSM 21092]): no antimicrobial activity
MIC [1]: no antimicrobial activity
effect on formation of C. auris biofilms (C. auris biofilm): did not affect the formation
MIC (C. albicans [DSM 11225]): no antimicrobial activity
